Our source for the MIC50, CC50 and Ratio values is ChEMBL document CHEMBL3124821, “Activity of caffeic acid derivatives against Candida albicans biofilm” (Bioorg Med Chem Lett, 2014).

Converted amounts (≈) assume the structure as drawn.

Series [1] concerns Candida albicans. As to the kind of experiment: Antifungal activity against early stage preformed Candida albicans ATCC 10231 biofilm by XTT reduction assay. Format: functional. On the technique in general: Tetrazolium assays rely on reduction of a dye to a coloured formazan, in cell work by metabolically active cells.
Series [2] concerns Candida albicans. As to the kind of experiment: Antifungal activity against planktonically grown Candida albicans ATCC 10231 by CLSI M27 A3 broth microdilution method. Format: functional. In general terms: Broth dilution looks for growth in wells or tubes with falling amounts of substance.
The test system of series [3] is Candida albicans. As to the kind of experiment: Inhibition of biofilm formation of Candida albicans ATCC 10231 by XTT reduction assay. Format: functional.
The test system of series [4] is Candida albicans. As to the kind of experiment: Antifungal activity against mature preformed Candida albicans ATCC 10231 biofilm by XTT reduction assay. Format: functional.
The next series can be described thus: in vitro. Particulars: human, NCI-H292 cells.
Series [5] has as its system Candida albicans. As to the kind of experiment: Ratio of compound MIC to fluconazole MIC for biofilm formation of Candida albicans ATCC 10231 by XTT reduction assay. Format: functional.

Description for in vitro: Cytotoxicity against human NCI-H292 cells assessed as reduction in viable cells by MTT assay

For the molecule `CCCOC(=O)/C=C/c1ccc(O)c(O)c1`, the MIC50 was found to be 256 µg/mL (≈ 1150 µM) in the series with Candida albicans [1], 128 µg/mL (≈ 576 µM) in the series with Candida albicans [2], 256 µg/mL (≈ 1150 µM) in the series with Candida albicans [3] and 256 µg/mL (≈ 1150 µM) in the series with Candida albicans [4].

Turning to `COc1ccc(OC(=O)/C=C/c2ccc(O)c(O)c2)cc1F`, the MIC50 is 128 µg/mL (≈ 421 µM) in the series with Candida albicans [2], 256 µg/mL (≈ 841 µM) in the series on Candida albicans [3] and 256 µg/mL (≈ 841 µM) against Candida albicans [4].

As a reminder, the CC50 is the concentration at which the toxic effect on the cells reaches its halfway point. As for `O=C(/C=C/c1ccc(O)c(O)c1)OCc1ccc([N+](=O)[O-])o1`, the MIC50 in the series on Candida albicans [1] was determined as 64 µg/mL (≈ 210 µM); against Candida albicans [2] it was 16 µg/mL (≈ 52.4 µM); against Candida albicans [3] it was 32 µg/mL (≈ 105 µM); against Candida albicans [4] it was 128 µg/mL (≈ 419 µM). In “in vitro”, this molecule came in with a CC50 of 192 µg/mL (≈ 627 µM).

For the molecule `O=C(/C=C/c1ccccc1)OCc1ccc([N+](=O)[O-])o1`, the MIC50 in the series with Candida albicans [1] amounted to 32 µg/mL (≈ 117 µM); against Candida albicans [2], 2 µg/mL (≈ 7.32 µM); in the series with Candida albicans [3], 32 µg/mL (≈ 117 µM); against Candida albicans [4], 64 µg/mL (≈ 234 µM). The same molecule returned a CC50 in “in vitro” of 174 µg/mL (≈ 638 µM).

As to `O=C(CCc1ccc(O)c(O)c1)OCc1ccc([N+](=O)[O-])o1`, the MIC50 is 128 µg/mL (≈ 417 µM) against Candida albicans [1], 64 µg/mL (≈ 208 µM) against Candida albicans [2], 128 µg/mL (≈ 417 µM) in the series on Candida albicans [3] and 128 µg/mL (≈ 417 µM) in the series on Candida albicans [4]. In “in vitro”, the CC50 was determined as 257 µg/mL (≈ 835 µM).

With `O=C(OCc1ccc([N+](=O)[O-])o1)c1ccc(O)c(O)c1`, the Ratio with Candida albicans [5] is reported as 8. In addition, the MIC50 worked out at 64 µg/mL (≈ 229 µM) in the series with Candida albicans [1], 16 µg/mL (≈ 57.3 µM) against Candida albicans [2], 16 µg/mL (≈ 57.3 µM) in the series with Candida albicans [3] and 64 µg/mL (≈ 229 µM) against Candida albicans [4]. The molecule also came in with a half-maximal cytotoxic concentration (CC50) in the series “in vitro” of 132 µg/mL (≈ 473 µM).

For `CC(C)COC(=O)/C=C/c1ccc(O)c(O)c1`, the MIC50 in the series on Candida albicans [2] is 128 µg/mL (≈ 542 µM); in the series on Candida albicans [3], 256 µg/mL (≈ 1080 µM); with Candida albicans [4] it was 256 µg/mL (≈ 1080 µM).

For the molecule `O=C(O)/C=C/c1ccc(O)c(O)c1` [CAFFEIC ACID], the MIC50 in the series with Candida albicans [1] came out at 256 µg/mL (≈ 1420 µM); with Candida albicans [2], 128 µg/mL (≈ 710 µM); against Candida albicans [3], 256 µg/mL (≈ 1420 µM); with Candida albicans [4] it was 256 µg/mL (≈ 1420 µM).

Consider `CCOC(=O)/C=C/c1ccc(O)c(O)c1` [ETHYL CAFFEATE], for which the MIC50 worked out at 128 µg/mL (≈ 615 µM) with Candida albicans [2], 256 µg/mL (≈ 1230 µM) against Candida albicans [3] and 256 µg/mL (≈ 1230 µM) with Candida albicans [4].

`OC(Cn1cncn1)(Cn1cncn1)c1ccc(F)cc1F` [FLUCONAZOLE]: the MIC50 stood at 256 µg/mL (≈ 836 µM) against Candida albicans [1], 0.5 µg/mL (≈ 1.63 µM) against Candida albicans [2], 128 µg/mL (≈ 418 µM) against Candida albicans [3] and 256 µg/mL (≈ 836 µM) in the series with Candida albicans [4].

For the molecule `COC(=O)/C=C/c1ccc(O)c(O)c1` [METHYLCAFFEATE], the figures for the MIC50 in the series on Candida albicans [2], against Candida albicans [3] and in the series with Candida albicans [4] were 128 µg/mL (≈ 659 µM), 256 µg/mL (≈ 1320 µM) and 256 µg/mL (≈ 1320 µM), respectively.
